# Values of other authors, collected in patent US5164490A, “Pneumocystis carinii dihydrofolate reductase gene and methods for its use” (The Regents of the University of California, priority 1989, dated 1992).
# System: P. carinii
# Settings: trimethoprim alone
smiles,measurement,value
COc1cc(Cc2cnc(N)nc2N)cc(OC)c1OC [trimethoprim],efficacy in the rat model of P. carinii infection,lack of efficacy
